The test system of this data set is biotin-induced antibody release, U2OS clone #7 cells. The data set is described as follows: High-throughput RUSH screen: biotin-induced cytoplasmic GFP signal decay (antibody release), U2OS clone #7. It is filed as cell-based, human. The conditions noted are these: for secretion activator at both low and high concentration (consistently decreased fluorescent signal, among 20 best activators): Prestwick library; for decrease of intracytoplasmic GFP fluorescence signal (biotin-stimulated RUSH system): screening campaigns, summary; for activity as secretion activator at both low and high concentrations: ICCB Known Bioactives and TargetMol Autophagy libraries. The protocol: FIGS. 4A-4C show the high-throughput screening of chemical compound libraries for the identification of modulators of protein secretion. […] U2OS clone #7 is plated in 384-well plates and incubated for 24 h before treatment with each compound of the Prestwick, ICCB Known Bioactives, or Autophagy Compound Library at 2 concentrations, low and high (with a 10-fold difference). […] The results of the Prestwick library screening at the low drug concentration are plotted. Brefeldin A was used as a positive control of the inhibition of secretion. The compounds causing a cytoplasmic GFP intensity below that observed for biotin-only treated cells are potential enhancers of protein secretion.
U2OS cells were transfected with the streptavidin-KDEL plasmid using Lipofectamine 2000 (Thermo Fisher Scientific) and selected in medium supplemented with G418 (400 μg/mL, Gibco-Invitrogen) for 2 weeks. Limiting dilution in 96-well plates was used for single cell isolation from the selected pool. Clones were amplified and selected based on streptavidin immunofluorescence. Clone #BD6 showing the highest streptavidin expression was further expanded in medium supplemented with G418 (200 μg/mL) and transfected with the anti-PD-L1 IgG RUSH plasmid using Lipofectamine 2000 and selected in medium supplemented with G418 (200 μg/mL) and hygromycin (100 μg/mL, Santa Cruz Biotechnology) for 2 weeks. Limiting dilution in 96-well plates was used for single cell isolation from clone #BD6-derived selected pool. Clones were amplified and selected based on GFP fluorescence and clone #7 was selected for further characterization and screening campaigns.
U2OS clone #7 cells were seeded in black 384-well imaging plates (Greiner bio one), 2,000 cells/well, and incubated for 24 h at 37° C. in a humidified incubator with 5% CO2. Cells were treated on the next day with the compounds from either the Prestwick library at […], the ICCB Known Bioactives library at 1/100^e or 1/1000^e, or the autophagy compound library at 10 μM or 1 μM for 4 h. […] Cells were then fixed as described above and processed for subsequent automated image acquisition using a robot-assisted IXM XL BioImager (Molecular Devices, Sunnyvale, CA, USA) equipped with a Sola light source (Lumencor, Beaverton, OR, USA), adapted excitation and emission filters (Semrock) a 16-bit monochrome sCMOS PCO.edge 5.5 camera (PCO, Kelheim, Germany). A 20× PlanAPO objective (Nikon, Tokyo, Japan) was used to acquire a minimum of 4 view fields in each well. The acquired images were processed using the open-access R software (https://www.r-project.org) with the help of freely available packages EBImage (available on the Bioconductor repository https://www.bioconductor.org), and RBioFormats (https://github.com/aoles/RBioFormats), and the custom packages MetaxpR (https://github.com/asauvat/MetaxpR) and MorphR (https://github.com/kroemerlab/MorphR). Nuclei were first detected using Hoechst 33342 signal and used as a marker to detect cytoplasmic areas based on GFP signal, allowing for the evaluation of cytoplasmic GFP intensity. Data were thereafter extracted and statistically evaluated using R (https://www.r-project.org). Data were normalized using negative and positive controls, reduced and transformed into a Z-score. The experiments were repeated manually at low scale with selected drugs to confirm their effects on secretion, in this second set of assays, U2OS clone #7 cells incubated with secretion inhibitors were fixed and stained with Hoechst as described above for imaging and viability determination based on cell counts.
We next sought to use clone #7 in screening campaigns for the identification of drugs capable of enhancing or inhibiting antibody secretion. […] Cell counting was facilitated by nuclear counterstaining with Hoechst 33324 in order to assess viability and distinguish drug effects on the secretion kinetics from direct cytotoxicity and select relevant drugs for further characterization. […]

Where [1] appears, read: 4 h compound, then 40 μM biotin 1 h.

Take verteporfin: the “secretion activator at both low and high concentration (consistently decreased fluorescent signal, among 20 best activators)” value under setting [1] is “fulfilled these criteria”. The “phototoxicity leading to GFP bleaching” value (data not shown) is recorded as “phototoxicity that leads to GFP bleaching”.
As for `C1N2CN3CN1CN(C2)C3` [methenamine, 1,3,5,7-tetrazatricyclo[3.3.1.13,7]decane], the “decrease of intracytoplasmic GFP fluorescence signal (biotin-stimulated RUSH system)” value (shortened to “decrease … (biotin-stimulated RUSH system)”) is “consistently decreased intracytoplasmic GFP fluorescence”. Besides, the “secretion activator at both low and high concentration (consistently decreased fluorescent signal, among 20 best activators)” value under setting [1] was “fulfilled these criteria”.
In the same order, the values of `CCC1(CC)C(=O)C=CNC1=O` [pyrithyldione, 3,3-diethyl-1H-pyridine-2,4-dione] are “consistently decreased intracytoplasmic GFP fluorescence” and “fulfilled these criteria”.
As for `C[C@H]1CCC/C=C/[C@@H]2C[C@H](O)C[C@H]2[C@H](O)/C=C/C(=O)O1` [brefeldin A], where the note is “4 h compound, then 40 μM biotin 1 h, screening”, the “inhibition of the biotin-induced decrease of the GFP signal” value is “inhibited the biotin-induced decrease of the GFP signal”.
Consider `O=C(O)CCNC(=O)c1ccc(/N=N/c2ccc(O)c(C(=O)O)c2)cc1` [balsalazide sodium], for which the “secretion activator at both low and high concentration (consistently decreased fluorescent signal, among 20 best activators)” value under setting [1] is “fulfilled these criteria”.
As for `O=C1CC(c2ccccc2)Oc2cc(O)cc(O)c21` (stereo not drawn) [pinocembrin, 5,7-Dihydroxy-2-phenyl-2,3-dihydro-4H-chromen-4-one], the “decrease … (biotin-stimulated RUSH system)” value is “consistently decreased intracytoplasmic GFP fluorescence”. Besides, under setting [1], the “activity as secretion activator at both low and high concentrations” value is “active at both low and high concentrations”.
For the compound `C[C@@H]1C[C@@H]([C@H](O)CC2CC(=O)NC(=O)C2)C(=O)[C@@H](C)C1` [cycloheximide, 4-[(2R)-2-[(1S,3S,5S)-3,5-dimethyl-2-oxocyclohexyl]-2-hydroxyethyl]piperidine-2,6-dione], the “decrease … (biotin-stimulated RUSH system)” value is given as “consistently decreased intracytoplasmic GFP fluorescence”. Besides, the “secretion activator at both low and high concentration (consistently decreased fluorescent signal, among 20 best activators)” value under setting [1] is on record as “fulfilled these criteria”.
In the case of `CC[C@H]1CN2CCc3cc(OC)c(OC)cc3[C@@H]2C[C@@H]1C[C@H]1NCCc2cc(OC)c(OC)cc21` [emetine], the “activity as secretion activator at both low and high concentrations” value under setting [1] is “active at both low and high concentrations”.
In the case of `C[C@]12CC[C@H](O)C[C@H]1CC[C@@H]1[C@@H]2C[C@@H](O)[C@]2(C)[C@@H](C3=CC(=O)OC3)CC[C@]12O` [digoxigenin, 3-[(3S,5R,8R,9S,10S,12R,13S,14S,17R)-3,12,14-trihydroxy-10,13-dimethyl-1,2,3,4,5,6,7,8,9,11,12,15,16,17-tetradecahydrocyclopenta[a]phenanthren-17-yl]-2H-furan-5-one], the “decrease … (biotin-stimulated RUSH system)” value was “consistently decreased intracytoplasmic GFP fluorescence”. The “secretion activator at both low and high concentration (consistently decreased fluorescent signal, among 20 best activators)” value under setting [1] was “fulfilled these criteria”.

The values above are taken from patent US20260297508A1, “MODULATORS OF PROTEIN SECRETION” (SANOFI, priority 2023, published 2026).
